{"source": "paper PMC7865263", "about": "“Synthesis and Biological Evaluation of a Novel ^18F-Labeled Radiotracer for PET Imaging of the Adenosine A2A Receptor” (International Journal of Molecular Sciences, 2021)", "key": {"[1]": {"molecular_target": "T1, A2AR (Mus musculus, UniProt Q60613)", "T1 construct": "from tissue; host or cells: living CD-1 mice, brain regions (in vivo PET/MR)", "T1 sequence (Q60613 whole entry)": "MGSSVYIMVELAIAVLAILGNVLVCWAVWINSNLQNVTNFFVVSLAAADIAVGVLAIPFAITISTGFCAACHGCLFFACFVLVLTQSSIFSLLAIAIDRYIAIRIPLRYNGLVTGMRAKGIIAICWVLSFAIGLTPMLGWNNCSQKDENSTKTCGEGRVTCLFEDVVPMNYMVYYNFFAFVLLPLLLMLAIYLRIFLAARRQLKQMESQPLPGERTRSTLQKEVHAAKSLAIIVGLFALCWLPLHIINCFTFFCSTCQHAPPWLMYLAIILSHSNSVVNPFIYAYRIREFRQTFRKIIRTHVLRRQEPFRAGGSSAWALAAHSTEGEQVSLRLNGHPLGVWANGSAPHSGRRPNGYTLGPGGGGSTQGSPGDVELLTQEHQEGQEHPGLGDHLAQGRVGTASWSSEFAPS", "parameters": "method as in PMID 21843786, PMID 25061687, PMID 32252340", "details": "mice; cited from earlier work"}, "[2]": {"parameters": "method as in PMID 32252340", "details": "mice, 15 min p.i.; cited from earlier work"}, "[3]": {"system": "A2AR", "test": "In vitro autoradiography on pig brain cryosections", "format": "binding", "procedure": "(§1) Brains of CD-1 mice and piglets frozen in isopentane were cut using a cryostat, thaw-mounted onto microscope slides, and after air-drying stored at −80 °C until use. Briefly, the brain cryosections were dried in a stream of cold air, and pre-incubated in 50 mM TRIS HCl buffer (pH 7.4, 100 mM NaCl, 5 mM MgCl2, 1 mM EDTA) containing 1 µU/mL adenosine deaminase (ADA) for 15 min at RT. Afterwards, brain sections were incubated with 0.1 MBq/mL of [^18F]TOZ1 (1.1 nM) in buffer for 90 min at RT. Non-specific binding was determined in the presence of 1 µM ZM241385. Displacement was evaluated with different concentrations of TOZ1 in order to determine the binding affinity towards the A2AR. Subsequently, the sections were washed twice for 5 min in ice-cold TRIS-HCl buffer and dipped for 5 s in ice-cold deionized water. The sections were rapidly dried in a stream of cold air before being exposed overnight on an imaging plate. Developed autoradiographs were analyzed in a phosphor imager (HD-CR 35; Duerr NDT GmbH; Bietigheim-Bissingen, Germany). Quantification was performed by using 2D-densitometric analysis (AIDA 2.31 software; raytest Isotopenmessgeräte GmbH; Straubenhardt, Germany)."}, "[4]": {"molecular_target": "T1, A2AR", "test": "In vitro autoradiography on mouse brain cryosections", "format": "binding", "procedure": "as §1"}, "[5]": {"molecular_target": "T1, A2AR", "test": "Dynamic PET/MR imaging in CD-1 mice", "format": "in vivo", "procedure": "For the time of the experiments, CD-1 mice were kept in a dedicated climatic chamber with free access to water and food under a 12:12 h dark:light cycle at a constant temperature (24 °C). The animals were anaesthetized (anesthesia unit U-410; agntho’s; Lidingö; Sweden) with isoflurane (1.8%, 0.35 L/min) delivered in a 40% oxygen/60% air mixture (Gas Blender 100 Series; MCQ instruments; Rome, Italy) and maintained at 37 °C with a thermal bed system. The formulated radiotracer was injected into the tail vein ([^18F]TOZ1: […] in 150 µL isotonic saline; Am: 66 GBq/µmol; 7.9 ± 5.8 nmol/kg) followed by a 60 min PET/MR scan (PET/MR 1Tesla; nanoScan®; MEDISO Medical Imaging Systems; Budapest, Hungary): 7 baseline studies with vehicle (DMSO/Kolliphor/NaCl, 1:2:7, v/v/v), 3 pre-treatment studies with tozadenant (2.5 mg/kg; abcr GmbH; Karlsruhe, Germany) and 4 pre-treatment studies with cyclosporine A (50 mg/kg; Sigma Aldrich, Germany). Each PET image was corrected for random coincidences, dead time, scatter and attenuation (AC), based on a whole body (WB) MR scan. The list mode data were sorted into sinograms using a framing scheme of 12 × 10 s, 6 × 30 s, 5 × 300 s, […]. The reconstruction parameters for the list mode data were 3D-ordered subset expectation maximization (OSEM), 4 iterations, 6 subsets, energy window: 400–600 keV, coincidence mode: 1–5, ring difference: 81. The mice were positioned prone in a special mouse bed (heated up to 37 °C), with the head fixed to a mouth piece for the anesthetic gas supply with isoflurane in 60% air and 40% oxygen (anesthesia unit: U-410, agnthos, Lidingö, Sweden; Gas blender: MCQ, Rome, Italy). The PET data were collected by a continuous WB scan during the entire investigation. Following the 60 min PET scan a T1 weighted WB gradient echo sequence (TR/TE: 20/6.4 ms, NEX: 1, FA: 25, FOV: 64 × 64 mm, matrix: 128 × 128, slice thickness: 0.5 mm) was performed for AC and anatomical orientation. Image registration and evaluation of the volumes of interest (VOI) was done with PMOD 3.9 (PMOD technologies LLC; Zurich, Switzerland). The respective brain regions were identified using the mouse brain atlas template Ma-Benveniste-Mirrione-FDG. Spherical VOI with diameters of 1 to 2 mm were placed at the center of the liver, stomach and spleen. Gallbladder, small intestine, kidney, and bladder VOI were delineated from the PET signal. Heart wall, stomach wall and blood were delineated from the T1 weighted image avoiding spill over from neighboring organs. The activity data are expressed as mean SUV + SEM of the overall VOI."}, "[6]": {"test": "In vivo metabolism (radiometabolite analysis) in CD-1 mice", "parameters": "species or system mouse", "details": "30 min p.i., n = 2", "procedure": "The radiotracer was administered i.v. as bolus in awake CD-1 mice (40 MBq [^18F]TOZ1; n = 2). At 30 min post injection (p.i.), blood samples were taken retroorbitally from the anesthetized animals. Plasma was separated by centrifugation at 8000 rpm at RT for 1 min (Centrifuge 5418; Eppendorf Vertrieb Deutschland GmbH; Wesseling-Berzdorf; Germany), and brain homogenized in 1 mL water on ice (10 strokes of a PTFE plunge at 1000 rpm in a borosilicate glass cylinder; Potter S Homogenizer; B. Braun Melsungen AG; Melsungen, Germany). For protein precipitation and extraction an ice-cold mixture of acetone/water (4/1; v/v) was used in a ratio of 4:1 (v/v) of solvent to plasma or brain homogenate, respectively. The samples were vortexed for 3 min, equilibrated on ice for 5 min, and centrifuged for 5 min at 10,000 rpm. After separating the supernatant, the precipitates were washed with 100 µL of the solvent mixture and subjected to the same procedure. The combined supernatants were concentrated at 75 °C under nitrogen flow to a final volume of approx. 100 µL and analyzed by analytical radio-HPLC (see section quality control). To determine the percentage of activity in the supernatants compared to total activity, aliquots of each step as well as the precipitates were quantified by a gamma counter (Wallac Wizard 1480; Perkin Elmer; Turku; Finland)."}, "[7]": {"test": "Chemical stability in saline, PBS and n-octanol at 37 °C", "format": "physicochemical", "details": "up to 60 min", "procedure": "(§2) The chemical stability of [^18F]TOZ1 was investigated in isotonic saline, phosphate-buffered saline (PBS, pH 7.4) and n-octanol by incubation at 37 °C. Samples were taken at 15, 30 and 60 min of incubation time and analyzed by radio-TLC and radio-HPLC. The logD7.4 value of [^18F]TOZ1 was experimentally determined in n-octanol/PBS at RT by the shake-flask method. The measurements were performed in triplicate."}, "[8]": {"molecular_target": "mA2AR (Mus musculus, UniProt Q60613)", "sequence (Q60613 whole entry)": "as above", "test": "Radioligand binding assay towards mouse A2AR", "details": "in-house; tozadenant value: unpublished data"}, "[9]": {"test": "Distribution coefficient LogD7.4, n-octanol/PBS, shake-flask method", "format": "physicochemical", "details": "pH 7.4, n-octanol–PBS, n = 3", "procedure": "as §2"}, "[10]": {"molecular_target": "A2AR", "details": "read-out: Ki (r); rat; cited from earlier work"}}, "note": "Where “and” joins values, the source holds several entries; their conditions need not be identical. Equal values may be shown once. Read-outs that look alike come from different tables or passages of the source."}
{"compound": "Nc1nc2c(cnn2CCCc2ccc(OCCF)cc2)c2nc(-c3ccco3)nn12", "note": "[[^18F]FESCH]", "values": [{"measurement": "maximum SUVr striatum-to-cerebellum", "setting": "[1]", "result": "~ 5"}, {"measurement": "parent fraction in brain", "setting": "[2]", "result": 71, "unit": "%"}, {"measurement": "parent fraction in plasma", "setting": "[2]", "result": 41, "unit": "%"}]}
{"compound": "COc1ccc(N2CCOCC2)c2sc(NC(=O)c3ccc([18F])nc3)nc12", "note": "[[^18F]TOZ1]", "values": [{"measurement": "binding in A2AR-poor regions (cerebellum, midbrain, cortex, thalamus)", "setting": "[3]; pig brain", "result": "only negligible binding"}, {"measurement": "binding in striatum displaced by co-incubation with 1 µM ZM241385", "setting": "[3]; pig striatum, 1 nM radiotracer", "result": "Approx. 60%"}, {"measurement": "total binding ratio striatum-to-cerebellum", "setting": "[4]; in vitro binding studies", "result": 1.7}, {"measurement": "binding in A2AR-poor regions (cerebellum, midbrain, cortex, thalamus)", "setting": "[4]; mouse brain", "result": "only negligible binding"}, {"measurement": "binding in striatum displaced by co-incubation with 1 µM ZM241385", "setting": "[4]; mouse striatum, 1 nM radiotracer", "result": "Approx. 60%"}, {"measurement": "maximum receptor density (Bmax)", "setting": "[4]; mouse striatum, homologous competition, n = 3", "result": "287 ± 104", "unit": "fmol/mg wet weight"}, {"measurement": "Kd", "setting": "[4]; mouse striatum, homologous competition, n = 3, read-out: equilibrium dissociation constant (KD)", "result": "23 ± 5.5", "unit": "nM"}, {"measurement": "maximum SUV ratio (SUVr) striatum-to-cerebellum", "setting": "[5]; baseline", "result": 1.2}, {"measurement": "initial brain uptake, standardized uptake value (SUV)", "setting": "[5]; between 1–5 min, baseline", "result": 0.4}, {"measurement": "effect of pre-administration of cyclosporine A (P-gp inhibitor) on uptake in striatum and whole brain", "setting": "[5]; cyclosporine A 50 mg/kg vs. vehicle, n = 4", "result": "a tendency to a higher uptake was observed in the striatum and the whole brain, but it was not significant"}, {"measurement": "effect of pre-administration of tozadenant on activity accumulation in brain", "setting": "[5]; tozadenant 2.5 mg/kg vs. vehicle, n = 3", "result": "could not reduce the accumulation of the activity in the brain"}, {"measurement": "initial SUV in heart, stomach, spleen, liver", "setting": "[5]; whole-body PET", "result": "< 5"}, {"measurement": "SUV60 min bladder", "setting": "[5]; whole-body PET, 60 min", "result": 11.2}, {"measurement": "SUV60 min gallbladder", "setting": "[5]; whole-body PET, 60 min", "result": 39.2}, {"measurement": "SUV60 min small intestine", "setting": "[5]; whole-body PET, 60 min", "result": 26.3}, {"measurement": "parent fraction in brain", "setting": "[6]", "result": "> 92% and 92%"}, {"measurement": "stability in saline, PBS and n-octanol", "setting": "[7]", "result": "stability of [^18F]TOZ1 was proven in all tested media"}, {"measurement": "Ki", "setting": "[8]", "result": 10, "unit": "nM"}, {"measurement": "logD", "setting": "[9]", "result": "1.74 ± 0.08"}]}
{"compound": "NECA", "values": [{"measurement": "Ki", "setting": "[10]", "result": 8.3, "unit": "nM"}]}
